Data reported in the NIST ThermoML archive (doi:10.1021/acs.jced.7b00176).

Experiment: xn = mol fraction of the nth substance listed
Conditions: Liquid, Vibrating tube method

COCCOCCOC [2,5,8-trioxanonane] + CCCCO
Conditions	mass density [kg/m3]
343.04 K, 60000 kPa, x2 = 0.7308	860.64
343.04 K, 60000 kPa, x2 = 0.8787	837.96
343.04 K, 80000 kPa, x2 = 0.7308	872.22
343.04 K, 100000 kPa, x2 = 0.7308	882.62
343.04 K, 100000 kPa, x2 = 0.8787	859.63
343.05 K, 5000 kPa, x2 = 0.3116	869.66
343.05 K, 10000 kPa, x2 = 0.3116	874.4
343.06 K, 20000 kPa, x2 = 0.3116	883.26
343.06 K, 30000 kPa, x2 = 0.3116	891.31
343.06 K, 40000 kPa, x2 = 0.3116	898.79
343.06 K, 60000 kPa, x2 = 0.3116	912.24
343.07 K, 80000 kPa, x2 = 0.3116	924.13
343.08 K, 100000 kPa, x2 = 0.3116	934.89
362.51 K, 100 kPa, x2 = 0	873.45
362.51 K, 1000 kPa, x2 = 0	874.46
362.51 K, 5000 kPa, x2 = 0	879.02
362.52 K, 10000 kPa, x2 = 0	884.41
362.52 K, 20000 kPa, x2 = 0	894.33
362.52 K, 30000 kPa, x2 = 0	903.29
362.52 K, 40000 kPa, x2 = 0	911.53
362.53 K, 60000 kPa, x2 = 0	926.3
362.53 K, 80000 kPa, x2 = 0	939.26
362.53 K, 100000 kPa, x2 = 0	950.89
362.67 K, 100 kPa, x2 = 0.5469	819.52
362.68 K, 1000 kPa, x2 = 0.5469	820.52
362.68 K, 5000 kPa, x2 = 0.5469	825.03
362.68 K, 10000 kPa, x2 = 0.5469	830.34
362.69 K, 100 kPa, x2 = 0.8787	774.25
362.69 K, 1000 kPa, x2 = 0.8787	775.26
362.69 K, 5000 kPa, x2 = 0.8787	779.7
362.69 K, 20000 kPa, x2 = 0.5469	840.09
362.69 K, 30000 kPa, x2 = 0.5469	848.85
362.69 K, 40000 kPa, x2 = 0.5469	856.9
362.69 K, 60000 kPa, x2 = 0.5469	871.26
362.69 K, 80000 kPa, x2 = 0.5469	883.92
362.7 K, 5000 kPa, x2 = 0.3116	850.69
362.7 K, 10000 kPa, x2 = 0.8787	784.88
362.7 K, 20000 kPa, x2 = 0.8787	794.41
362.7 K, 30000 kPa, x2 = 0.8787	802.93
362.7 K, 40000 kPa, x2 = 0.8787	810.75
362.7 K, 60000 kPa, x2 = 0.8787	824.68
362.7 K, 100000 kPa, x2 = 0.5469	895.2
362.71 K, 100 kPa, x2 = 0.3116	845.12
362.71 K, 100 kPa, x2 = 0.7308	795.72
362.71 K, 1000 kPa, x2 = 0.3116	846.14
362.71 K, 10000 kPa, x2 = 0.3116	856.03
362.71 K, 20000 kPa, x2 = 0.3116	865.91
362.71 K, 30000 kPa, x2 = 0.3116	874.79
362.71 K, 80000 kPa, x2 = 0.8787	836.92
362.71 K, 100000 kPa, x2 = 0.8787	847.79
362.72 K, 1000 kPa, x2 = 0.7308	796.73
362.72 K, 5000 kPa, x2 = 0.7308	801.19
362.72 K, 10000 kPa, x2 = 0.7308	806.44
362.72 K, 20000 kPa, x2 = 0.7308	816.08
362.72 K, 30000 kPa, x2 = 0.7308	824.74
362.72 K, 40000 kPa, x2 = 0.3116	882.96
362.72 K, 40000 kPa, x2 = 0.7308	832.66
362.72 K, 60000 kPa, x2 = 0.3116	897.55
362.72 K, 80000 kPa, x2 = 0.3116	910.38
362.72 K, 100000 kPa, x2 = 0.3116	921.84
362.73 K, 60000 kPa, x2 = 0.7308	846.83
362.73 K, 80000 kPa, x2 = 0.7308	859.23
362.73 K, 100000 kPa, x2 = 0.7308	870.28
